The data set has as its system GL3 luciferase gene. The experiment in a line: Evaluation of each siRNA using Dual-Luc reporter system (expression-suppressive activity). As to conditions: for IC50: HCT116 cells transfected with vector OFF#085 or OFF#086, siRNA reverse transfection with Lipofectamine RNAiMAX, two-night culture, luciferase activity (Renilla/firefly), Dual-Glo, read-out: 50% inhibition concentration; for suppressive activity against luciferase expression compared with control RNA: Dual-Luc reporter system, HCT116 cells, comparison drawn from Table 1. In kind it is cell-based, Human. Here is the method:
Each siRNA was evaluated using a Dual-Luc reporter system as described below.
A restriction enzyme sequence was added to a sequence containing a 19-base sequence complementary to the antisense strand of siRNA against the GL3 luciferase gene (Elbashir S M et al., Nature, Vol. 411, 24 May 2001, 494-498), and its 5′-flanking 10 bases and 3′-flanking 10 bases. The resulting sequence was incorporated into the XhoI/NotI site of a psiCHECK2 plasmld (Promega KK) either in a forward direction (sequence A) or in a reverse direction (sequence B) to construct vectors for the expression of firefly Iuciferase and Renilla luciferase, OFF#085 and OFF#086, respectively.
Human colon cancer cell line HCT116 cells (ATCC) were inoculated at a density of 3×10^6 cells/10 ml/75 cm^2 flask. After overnight culture at 37° C. in 5% CO2, the cells were transfected with the vector OFF#085 or OFF#086 obtained in the preceding paragraph 1) using FuGENE 6 (F. Hoffmann-La Roche Ltd.) and further cultured overnight. Each siRNA synthesized in Example 5 and Comparative Example was diluted with PBS into two serial dilutions of 3.3 nM (final) and 0.0043 nM or 12 serial dilutions from 10 nM to 56 fM and used in reverse transfection of 1.6×10^4 cells/100 μL/well using Lipofectamine RNAiMAX reagent (Invitrogen Corp.). After two-night culture, firefly luciferase activity and Renilla luciferase activity were measured using Dual-Glo Luc Assay kit (Promega KK) according to the attached document. When the luciferase activity (Renilla/firefly) of cells reverse-transfected with 10 nM BLOCK-iT™ Alexa Fluor® Red Fluorescent Oligo (Invitrogen Corp.) was defined as 100%, the luciferase activity of the cells transfected with each siRNA was calculated. The IC50 value was calculated using GraphPad Prism 5.

Several values for one entry are separate records, joined by “and”; a condition that tells them apart may be missing. Equal values may be shown once.

For the substance “Control RNA: Control siRNA of sense strand SEQ ID NO: 4 and antisense strand SEQ ID NO: 5, free from compound 11 or 22 (sense CUUACGCUGAGUACUUCGATT; antisense UCGAAGUACUCAGCGUAAGTT; chemistry not fully specified) [reference compound]”, the IC50 was 0.024 nM and 0.012 nM.

Take “siRNA (1): siRNA of sense strand SEQ ID NO: 1 and antisense strand SEQ ID NO: 2 containing one formula (II) partial structure U(K) induced from compound 11 (sense CUUACGCUGAGUACUUCGATT; antisense UCGAAGUACUCAGCGUAAGTT; chemistry not fully specified)”: the “suppressive activity against luciferase expression compared with control RNA” value is given as “higher suppressive activity” and the IC50 was determined as 0.007 nM. Consider “siRNA (2): siRNA of sense strand SEQ ID NO: 1 and antisense strand SEQ ID NO: 3 containing one formula (II) partial structure U(K2) induced from compound 22 (sense CUUACGCUGAGUACUUCGATT; antisense UCGAAGUACUCAGCGUAAGTT; chemistry not fully specified)”, for which the “suppressive activity against luciferase expression compared with control RNA” value is listed as “higher suppressive activity” and the IC50 stood at 0.009 nM.

(Values after patent publication US9725474B2, “Modified nucleic acid” (TAKEDA PHARMACEUTICAL COMPANY LIMITED, priority 2012, dated 2017).)
